“Also recorded” adds a separate entry of the source.
What was measured:
HBV genotype A = assay: HBV replication inhibition in Huh7 cells, Southern blot, genotype A; type: cell-based, Hepatitis B virus; conditions: for Inhibition of HBV replication, RNA:DNA heteroduplex signature: 10 μM, Huh7 cells, Southern blot
Protocol: Huh7 cells were maintained in Dulbecco's modified Eagle's medium with 10% fetal bovine serum at 37° C. in 5% CO2. Cells were seeded into 60 mm dishes and transfected at 70% confluency with 2.6 μg of plasmids using TransIT-LT1 (Mirus, Inc.). Test compounds were added the morning following transfection at 10 or 50 μM, and fresh medium containing the compounds was provided every 1-2 days. Four or five days post-transfection HBV cores were isolated by lysis of the cells in 10 mM Tris pH 7.5, 1 mM EDTA, 0.25% NP40, 50 mM NaCl, and 8% sucrose followed by sedimentation through a 30% sucrose cushion as described (Travis, et al., 1998). Viral DNAs were isolated from cytoplasmic core particle preparations by proteinase K digestion followed by phenol/chloroform extraction as described (Gong et al., 2001). Duplicate aliquots of the nucleic acids were treated with 2 U E. coli DNAse-free RNAseH (Invitrogen) at 37° C. for 30 min. or were mock treated. The nucleic acid samples were resolved by electrophoresis on 1.2% agarose gels and detected by Southern blotting with ^32P-labeled HBV DNA as a probe.
Finally, the inventors asked whether HBV RNAseH inhibitors could block HBV replication in culture. Huh7 cells were transfected with genomic expression vectors for HBV genotype A or D isolates, the cells were treated with 10 or 50 μM compounds, and viral nucleic acids were isolated from intracellular HBV capsids after four days. Replicate nucleic acid aliquots were mock treated or treated with DNAse-free E. coli RNAseH to destroy RNA:DNA heteroduplexes, and then HBV DNAs were detected by Southern blotting. The signature of RNAseH inhibition is accumulation of RNA:DNA heteroduplexes that migrate as double-stranded species without exogenous RNAseH treatment but as faster-migrating single-stranded DNAs following RNAseH treatment.
Inhibition of HBV replication by βTJ was measured as recently described (Tavis et al., 2013). Briefly, Huh7 cells were transfected with HBV genomic expression vectors using TransIT-LT1 (Mirus, Inc.), βTJ was added 12-16 hrs post-transfection at the indicated concentrations, and fresh medium containing the compounds was provided two days later. HBV core particles were isolated four days post-transfection by detergent lysis of the cells and sedimentation through a sucrose cushion as described (Tavis et al., 1998). Viral DNAs were isolated from cytoplasmic core particle preparations by proteinase K digestion followed by phenol/chloroform extraction as described (Gong et al., 2001). Duplicate aliquots of each nucleic acid preparation were treated with 2 U E. coli DNAse-free RNAseH (Invitrogen) at 37° C. for 30 min. or were mock treated. The nucleic acids were resolved by electrophoresis on 1.2% agarose gels and HBV DNAs were detected by Southern blotting with ^32P-labeled double-stranded HBV DNA as a probe to detect both the plus- and minus-polarity HBV DNA strands. HBV core protein (HBc) and β-actin in the cytoplasmic lysates were monitored by western analysis using an anti-HBc antibody (HBP-023-9, Austral Biologicals) and a mouse […] monoclonal antibody from ZSGB-BIO Co., Ltd., respectively. HBV surface antigen (HBs) proteins were quantified by ELISA (Shanghai Kehua Biotech).

Huh7 cells = assay: MTS cytotoxicity assay in Huh7 cells; type: cell-based, human
Protocol: Toxicity of βTJ in Huh7 cells was determined with 3-(4,5-dimethylthiazol-2-yl)-5-β-carboxymethoxyphenyl)-2-(4-sulfophenyl)-2H-tetrazolium (MTS) assays that measures mitochondrial dysfunction employing the Cell Titre 96 aqueous nonradioactive cell proliferation assay (Promega), and with the CytoTox-Glo assay (Promega) that reflects cellular integrity. Huh7 and HepG2 cells (1×10^4) were plated in 96-well tissue culture plates, medium containing βTJ at the indicated concentrations was added the next day, the medium was replaced with fresh medium containing βTJ after two days, and after four days the MTS or CytoTox-Glo assays were conducted according to the manufacturer's instructions.

HBV = assay: Quantitative PCR screen of HBV plus-polarity DNA accumulation; type: cell-based, Hepatitis B virus; conditions: 60, 20, or 6.7 μM; DNA isolated day 3
Protocol: This assay was employed to screen 7 compounds for their ability to suppress HBV replication (FIG. 17). […] Fresh medium containing compound was provided on days 1 and 2, and capsid-associated HBV DNAs were isolated on day 3. HBV plus-strand DNAs were measured using the cross-gap TaqMan PCR assay.
Plus-polarity preferential quantitative TaqMan PCR for the HBV DNA was conducted employing forward primer […] […] PCR was conducted on purified HBV capsid-derived nucleic acids for 40 cycles of 95° C. for 15 sec. and 65° C. for 1 min. employing the TaqMan universal PCR master mix (Applied Biosystems). Results were standardized against serial dilutions of cloned HBV DNA. The EC50 was estimated by linear regression of the real-time PCR data.

## NCc1ccc(-c2ccc(Cc3cc(=O)n(O)c4ncccc34)cc2)cc1 [Compound 12, napthyridinone]
HBV genotype A
  Inhibition of HBV replication, RNA:DNA heteroduplex signature: blocked production of the slowest-migrating double-stranded forms; also recorded: inhibited HBV replication in cell culture; also recorded: inhibited production of the slowest-migrating (mature) viral DNA
Huh7 cells
  Estimated CC50, MTS assay, Huh7 cells: low μM range

## [N-]=[N+]=NCc1cccc(C(=O)CC(=O)C(=O)O)c1 [Compound 40]
HBV genotype A; 50 μM
  Inhibition of HBV replication: inhibited replication in another experiment

## CCOc1ccc(-c2c3cc(O)c(=O)cc-3oc3cc(O)c(O)cc23)cc1 [Compound 30]
HBV
  Suppression of HBV plus-polarity DNA accumulation: inhibited accumulation of HBV plus-polarity DNA to lesser extents

## CC(C)c1ccc(O)c(=O)c(O)c1 [Compound 46, beta-thujaplicinol]
HBV genotype A
  Inhibition of HBV replication, RNA:DNA heteroduplex signature: inhibited HBV replication in cell culture; also recorded: inhibited production of the slowest-migrating (mature) viral DNA
HBV genotype A; 2.5, 10, 15, and 20 μM, four days
  Accumulation of RC DNA and RNA:DNA heteroduplexes: suppressed accumulation of the RC DNA
HBV genotype A; 15 and 20 μM
  Total amount of viral DNA detected: suppressed
HBV
  Suppression of HBV plus-polarity DNA accumulation: suppressed viral replication to background
Huh7 cells; four days
  CC50: 10.1 ± 1.7 µM

## Cc1c2cc(O)c(=O)cc-2oc2cc(O)c(O)cc12 [Compound 8]
HBV genotype A
  Inhibition of HBV replication, RNA:DNA heteroduplex signature: did not affect HBV replication

## COc1ccc2ccccc2c1C=NNC(=O)c1cc(O)c(O)c(O)c1 [Compound 14]
HBV genotype A; 25 μM
  Inhibition of HBV replication: inhibited HBV replication in one experiment
